Here are results for eleven molecules from PMC7594722, “Investigation of pesticides on honey bee carbonic anhydrase inhibition” (Journal of Enzyme Inhibition and Medicinal Chemistry, 2020).

Each structure is given as a SMILES string. Where two headings read alike, the source gives them in different places.

For data set [1], the target named is AmCA (Apis mellifera spermatheca carbonic anhydrase). As to conditions: AmCA inhibition data from previous study; cited from earlier work.
For data set [2] the target is unchanged. The experiment in a line: AmCA inhibition, colorimetric CO2 hydrase assay. As to conditions: AmCA from honey bee spermatheca, triplicate, enzyme concentration 8.9 nM. It is filed as biochemical. As for the experimental part: Bee spermatheca samples were washed three times with 50 mM Tris/Sulphate (pH 7.8). Spermatecha samples taken from 200 bees were combined and homogenised with liquid nitrogen, then placed in the same buffer and centrifuged at 4 °C, 15,000 g for 30 min. The precipitate portion was discarded and the supernatant portion was separated and used in subsequent studies.
The enzyme was purified using Sepharose-4B-sulfanilamide affinity gel prepared by our group. Aniline was used as a spacer arm in the chromatography column. The column was then equilibrated with 25 mM Tris-HCl/0.1M Na2SO4 (pH 8.7) and the gel was washed with 25 mM Tris-HCl/22 mM Na2SO4 (pH 8.7). Finally, elution was performed with 1 M NaCl/25 mM Na2HPO4 (pH 6.3). The temperature was kept at 4 °C during all experiments.
The effects of methomyl, oxamyl, deltamethrin, dichlorodiphenyltrichloroethane ([…]), cypermethrin and diazinon on AmCA activities were assayed colorimetrically using the CO2 hydrase assay, in triplicate at each concentration of inhibitor (ranging from 1 nM to 10 mM). Control enzyme activity was taken as 100%. An activity % versus inhibitor graph was drawn for all pesticides (Microsoft Office 2000, Excel). Pesticide concentrations that caused 50% inhibition (IC50) of the enzyme activity were thus obtained graphically using a regression software. The enzyme concentration in the assay system was 8.9 nM.

Data set [3] has as its system honey bees and bumblebees. As to conditions: cited from earlier work.
Data set [4] concerns honey bees and bumblebees. As to conditions: cited from earlier work. This is another data set of the same source.

A word on the IC50: it is the midpoint of a concentration-inhibition curve. Take `CCNc1nc(Cl)nc(NC(C)C)n1` [Atrazine, atrazine]: the IC50 in data set [1] is 16.5 nM.

Turning to `CNC(=O)Oc1cccc2ccccc12` [Carbaryl, carbaryl], the IC50 in data set [1] was 3.1 nM.

On to `CNC(=O)Oc1cccc2c1OC(C)(C)C2` [Carbonfuran, carbofuran], for which, in data set [1], the IC50 is 8.7 nM.

`CC1(C)C(C=C(Cl)Cl)C1C(=O)OC(C#N)c1cccc(Oc2ccccc2)c1` (stereo not drawn) [Cypermethrin, cypermethrin] had an IC50 in data set [2] of 7.8 ± 0.3 nM. The “topical lethal dose (LD50)” value in data set [3] is recorded as 0.03 μg/bee. The “oral dose rates (oral LD50)” value in data set [4] is reported as 0.06 μg/bee.

For the molecule `CC1(C)[C@H](C(=O)O[C@H](C#N)c2cccc(Oc3ccccc3)c2)[C@@H]1C=C(Br)Br` [Deltamethrin, deltamethrin], 2.8 ± 0.1 nM corresponded to half-maximal inhibition in data set [2] (IC50). Further, the “topical lethal dose (LD50)” value in data set [3] is reported as 0.02 μg/bee.

`CCOP(=S)(OCC)Oc1cc(C)nc(C(C)C)n1` [Diazinon, diazinon] yielded an IC50 in data set [2] of 38.5 ± 1.2 nM. Moreover, the “topical lethal dose (LD50)” value in data set [3] is 0.38 μg/bee. For the same molecule, the “oral dose rates (oral LD50)” value in data set [4] is 0.21 μg/bee.

For the molecule `CNC(=O)ON=C(C)SC` [Methomyl, methomyl], in data set [2], half-maximal inhibition (IC50) was put at 2.3 ± 0.1 nM. Also, in data set [3], the “topical lethal dose (LD50)” value is recorded as 0.49 μg/bee. Also, the “oral dose rates (oral LD50)” value in data set [4] is given as 3.38 μg/bee.

The molecule `CNC(=O)O/N=C(\SC)C(=O)N(C)C` [Oxamyl, oxamyl] had an IC50 in data set [2] of 2.5 ± 0.1 nM.

`CNC(=O)Oc1ccccc1OC(C)C` [Propoxur, propoxur]: in data set [1], the IC50 is 32.1 nM.

With `CCNc1nc(Cl)nc(NCC)n1` [Simazin, simazine], the IC50 in data set [1] was 27.3 nM.

On to `CC(C)(C)C(O)(CCc1ccc(Cl)cc1)Cn1cncn1` (stereo not drawn) [Tebuconazole, tebuconazole], for which, in data set [1], the IC50 is 3 nM.
